Test results taken from patent US20090011974A1, “Scavenger Receptor B1 (Cla-1) Targeting for the Treatment of Infection, Sepsis and Inflammation” (priority 2002, published 2009).
Like-named read-outs stand apart in the source and are kept apart here. Blank lines part the entries; values can stand above or below the molecule they belong to.

Assays:
[1] = target: T1, CLA-1 (Homo sapiens, UniProt Q8WTV0); experiment: 125I-HDL binding and HDL-CE uptake in CLA-1 stably transfected HeLa cells
T1 construct: using the expression plasmid pTRE2 (Clontech, Pal Alto, Calif.), encoding a CLA-1 protein (pTRE2-CLA-1); expressed in transfected cells; host or cells: HeLa (Tet-off) cells (Clontech), stably co-transfected with pTRE2-CLA-1 and pTK-Hyg and selected with hygromycin
T1 sequence (Q8WTV0 1-509 isoform Q8WTV0-2): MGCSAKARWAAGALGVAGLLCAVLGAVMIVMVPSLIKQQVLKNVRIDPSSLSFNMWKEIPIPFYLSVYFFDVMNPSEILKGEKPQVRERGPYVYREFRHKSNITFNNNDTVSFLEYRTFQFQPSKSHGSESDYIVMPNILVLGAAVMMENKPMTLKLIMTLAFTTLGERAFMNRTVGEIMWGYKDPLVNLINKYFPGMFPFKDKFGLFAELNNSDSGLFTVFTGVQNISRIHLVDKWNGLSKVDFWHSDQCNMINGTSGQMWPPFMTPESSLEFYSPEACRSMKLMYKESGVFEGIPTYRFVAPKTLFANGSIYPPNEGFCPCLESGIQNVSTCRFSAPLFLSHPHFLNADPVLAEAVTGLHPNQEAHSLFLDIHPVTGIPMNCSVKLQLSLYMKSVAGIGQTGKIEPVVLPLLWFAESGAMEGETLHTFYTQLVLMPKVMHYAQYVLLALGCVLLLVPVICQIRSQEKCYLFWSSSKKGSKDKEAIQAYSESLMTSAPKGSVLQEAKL
Description: CLA-1 Overexpression HeLa cells. HeLa (Tet-off) cells (Clontech, Pal Alto, Calif.) are grown in DMEM (Invitrogen), supplemented with 10% fetal calf serum, 2 mM glutamine, 100 IU/ml of penicillin, 100 μg/ml of streptomycin, and 100 μg/ml of G418. Cells were transfected with FuGENE-6 (Roche Diagnostics), using the expression plasmid pTRE2 (Clontech, Pal Alto, Calif.), encoding a CLA-1 protein (pTRE2-CLA-1). Cells were co-transfected with pTRE2-CLA-1 and pTK-Hyg (Clontech, Pal Alto, Calif.), using a 1:20 ratio, and selected with 400 μg/ml of hygromycin. Hygromycin resistant cells were screened for the expression of the CLA-1 protein by utilizing rabbit anti-SR-BI/CLA-1 (Novus Biological, Inc) by Western blotting.
HDL-Binding And Cholesteryl Oleoyl Uptake Assays. Saturation binding experiments are performed at 4° C. using ^125I-HDL concentrations between 1.25 and 40 μg/ml. […] After a 2 hr-incubation on ice, specific binding is determined as reported by Bocharov, A. V. et al. (2001) (“CHARACTERIZATION OF A 95 KDA HIGH AFFINITY HUMAN HIGH DENSITY LIPOPROTEIN-BINDING PROTEIN,” Biochemistry 40:4407-4416).
HDL-[^3H]CE uptake experiments are performed in a serum free DMEM containing 0.2% BSA. […] Specific uptake is determined as the difference between total and nonspecific uptake.

[2] = test system: SR-BI/CLA-1; type: cell-based, mouse; conditions: 10 ng/ml, 24 h, RAW cells
Description: (§1) Cell culture and treatment.
(§2) RNA isolation and cDNA preparation. The total RNA of cultured cells is isolated and purified using Trizol reagent (Gibco BRL, Grand Island, N.Y.) according to the manufacturer's protocol. The concentration and quality of RNA were determined by UV absorbance at 260 and 280 nm. To prepare cDNA, total RNA (3 μg) is added to a mixture containing the following: 6 μl of 5× first-strand buffer (75 mM KCl, 50 mM Tris-HCl [pH 8.3], 3 mM MgCl2), 1.5 μl of deoxynucleoside triphosphates (10 mM [each] dATP, dCTP, dTTP, and dGTP), 1.5 μl of 0.0156 U (0.4 μg) of random hexamers, and 0.2 U of Moloney murine leukemia virus reverse transcriptase (all from Gibco BRL, Gaithersburg, Md.); 0.004 U of RNasin (Promega, Madison, Wis.); and RNase-free water to a final volume of 30 μl per 3 μg of cDNA. Samples are incubated at 37° C. for 60 min. Preliminary experiments are undertaken to achieve optimal conditions for amplifying mRNA for each of the gene products.
Reverse transcription-PCR (RT-PCR). A mixture of 37.2 μl of RNase-free water, 5 μl of 10× reaction buffer, and 0.5 μl (5 U) of AmpliTaq Gold DNA polymerase (Applied Biosystems, Roche Molecular Systems, Inc., Branchburg, N.J.), sense and antisense primers (1 μl each), and 0.3 μl (3 μCi) of [α-^32P]dCTP (Amersham Pharmacia Biotech, San Diego, Calif.) is vortexed, and 46 μl is aliquoted into each tube, containing 4 μl of cDNA, and overlaid with 50 μl of mineral oil (Sigma Chemical Co.). cDNA is amplified in a Perkin-Elmer (Norwalk, Conn.) System 2400 DNA thermal cycler, with denaturation for 1 min at 94° C., annealing for 1 min at 50° C., and extension for 2 min at 72° C. for GADPH (glyceraldehyde-3-phosphate dehydrogenase) (19 cycles), ABCA1 (28 cycles), SR-BI/CLA-1, and interleukin-1 [3 (IL-1β (27 cycles). The primers used in these analyses are as follows: GADPH, (SEQ ID NO:1) 5′-[…]-3′ and (SEQ ID NO:2) 5′-[…]-3′; SR-BI/CLA-1, (SEQ ID NO:3) 5′-CCA […] GGC TTC TGC-3′ and (SEQ ID NO:4) 5′-CTG AAT GGC CTC CTT ATC C-3′; ABCA1, (SEQ ID NO:5) 5′-CAACTACAAAGCCCTCTTTG-3′ and (SEQ ID NO:6) 5′-CTTGGCTGTTCTCCATGAAG-3′; and IL-1β, (SEQ ID NO:7) 5′-CTG AAA GCT CTC CAC CTC-3′ and (SEQ ID NO:8) 5′-GTG CTG ATG TAC CAG TTG-3′.
(§3) For the densitometry analysis, the intensities of the bands are measured with the Gel-Pro Analyzer 3.0 computer program and normalized with GADPH intensity.

[3] = test system: IL-1β; experiment: RT-PCR of IL-1β mRNA in RAW cells exposed to LPS preparations; type: cell-based, mouse; conditions: 10 ng/ml, 24 h, RAW cells
Description: as §1, §2
Reverse transcription-PCR (RT-PCR). […]
as §3

[4] = target: T1, CLA-1; type: binding; conditions: 100× excess unlabeled ligand, CLA-1 overexpressing and mock-transfected cells
Description: The lipopolysaccharide 0111:B4 (Sigma) is iodinated as reported by Ulevitch, R J. (1978) (“THE PREPARATION AND CHARACTERIZATION OF A RADIO IODINATED BACTERIAL LIPOPOLYSACCHARIDE,” Immunochemistry 15:157-164). […] After a 2-hr-incubation on ice, the cells are rinsed with ice-cold HBSS and utilized for radioactivity measurements as reported by Bocharov, A. V. et al. (2001) (“CHARACTERIZATION OF A 95 KDA HIGH AFFINITY HUMAN HIGH DENSITY LIPOPROTEIN-BINDING PROTEIN,” Biochemistry 40:4407-4416). Specific binding is determined as the difference between total and non-specific binding, and normalized by protein content.
HeLa cells grown until 70% confluence in DMEM with 10% FCS are washed with PBS and cultured for 24 hr in serum-free DMEM. […] After washing with ice-cold PBS, the cells are hydrolyzed in 1 N NaOH. Radioactivity is counted in an LKB Wallac Ultragamma counter.

[5] = target: T2, CLA-1 (CD36 and LIMPII Analogous-1), human scavenger receptor class B type I (human, UniProt Q8WTV0 1-552); experiment: confocal microscopy of Alexa 568-labelled peptide uptake, CLA-1 HeLa against mock HeLa
T2 construct: whole, on cells; Target is CLA-1 on stably transfected HeLa cells, compared with mock-transfected HeLa cells, which carry a low endogenous level of CLA-1; also called SR-BI/CLA-1; human SR-BI
T2 sequence (looked up): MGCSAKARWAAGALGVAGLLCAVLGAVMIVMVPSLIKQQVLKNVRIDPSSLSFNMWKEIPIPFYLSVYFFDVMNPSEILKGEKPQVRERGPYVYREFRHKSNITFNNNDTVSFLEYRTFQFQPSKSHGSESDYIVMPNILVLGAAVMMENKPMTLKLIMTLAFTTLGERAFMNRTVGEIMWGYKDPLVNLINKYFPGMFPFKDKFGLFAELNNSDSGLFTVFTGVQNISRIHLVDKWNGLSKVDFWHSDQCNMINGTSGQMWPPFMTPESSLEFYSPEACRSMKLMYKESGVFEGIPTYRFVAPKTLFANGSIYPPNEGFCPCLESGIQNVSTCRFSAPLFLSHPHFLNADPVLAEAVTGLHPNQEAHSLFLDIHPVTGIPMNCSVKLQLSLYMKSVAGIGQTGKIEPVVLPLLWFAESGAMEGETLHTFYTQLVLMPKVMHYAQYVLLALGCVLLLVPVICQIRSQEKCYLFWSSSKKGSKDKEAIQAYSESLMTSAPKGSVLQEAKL

Molecule: lipid A
competition for 125I-HDL-binding to CLA-1 overexpressing human HeLa cells [1]: all competed

Molecule: monophosphoryllipid A [MPLA]
activity as modulator of SR-BI, ABCA1 and IL-1β gene expression compared with other LPS preparations [2]: decreased activity compared to the other LPS derivatives
relative activities for the suppressive effect on SR-BI/CLA-1 and ABCA1 expression and SR-BI/CLA-1 protein expression [2]: LPS (Re595)>LPS (0111:B4)>DPLA>MPLA
activity as modulator of SR-BI, ABCA1 and IL-1β gene expression compared with other LPS preparations ([2]; listed as Re595 MPLA): less potent modulator
potency for IL-1β gene induction relative to Re595 LPS or DPLA [3]: approximately one-half
competition of unlabelled ligands against 125I-LPS (0111:B4) [4]: compete against iodinated LPS in both cell lines

binding result [5]: no binding
B1: 18A (peptide)
peptide: DWLKAFYDKVAEKLKEAF
notes: Synthetic single class A amphipathic helix; also called 18PA; L18PA
